# Experiments:
# [1] = test system: Calcium-activated potassium channel subunit alpha-1 (Homo sapiens), Q12791 [UNDEFINED MUTATION]; test: Activation of hyperactive human BKca channel G803D/N806K mutant transfected in human AD-293 cells assessed as maximum relative fluorescence value at 5 uM preincubated for 15 mins followed by Tl+ stimulus buffer addition and measured after 80 sec by Flexstation3 multimode microplate reader analysis relative to control; assay type: cell-based; conditions: time 980.0 sec
# [2] = target: T1, Calcium-activated potassium channel subunit alpha-1 (Homo sapiens, UniProt Q12791); test: Activation of BKca channel (unknown origin) by cell-based fluorescence assay
# [3] = test system: Calcium-activated potassium channel subunit alpha-1 (Homo sapiens), Q12791 [UNDEFINED MUTATION]; test: Activation of hyperactive human BKca channel G803D/N806K mutant transfected in human AD-293 cells assessed as fold change in maximum relative fluorescence value at 5 uM preincubated for 15 mins followed by Tl+ stimulus buffer addition and measured after 80 sec by Flexstation3 multimode microplate reader analysis; assay type: cell-based; conditions: filed as opener, time 980.0 sec
# [4] = target: T1, Calcium-activated potassium channel subunit alpha-1; test: Activation of BKca channel (unknown origin) by cell based method
# [5] = target: T1, Calcium-activated potassium channel subunit alpha-1; test: Activation of human KCa1.1 by patch clamp method
# [6] = Half-life in male Sprague-Dawley rat at 10 mg/kg, iv by LC-MS/MS analysis; assay type: ADME, organism-based; conditions: in vivo
# [7] = AUClast in male Sprague-Dawley rat at 10 mg/kg, iv by LC-MS/MS analysis; assay type: ADME, organism-based; conditions: in vivo
# [8] = Clearance in male Sprague-Dawley rat at 10 mg/kg, iv by LC-MS/MS analysis; assay type: ADME, organism-based; conditions: in vivo
# [9] = Volume of distribution at steady state in male Sprague-Dawley rat at 10 mg/kg, iv by LC-MS/MS analysis; assay type: ADME, organism-based; conditions: in vivo, read-out: Vdss
# [10] = Cmax in male Sprague-Dawley rat at 10 mg/kg, po by LC-MS/MS analysis; assay type: ADME, organism-based; conditions: in vivo
# [11] = Tmax in male Sprague-Dawley rat at 10 mg/kg, po by LC-MS/MS analysis; assay type: ADME, organism-based; conditions: in vivo
# [12] = Half-life in male Sprague-Dawley rat at 10 mg/kg, po by LC-MS/MS analysis; assay type: ADME, organism-based; conditions: in vivo
# [13] = AUClast in male Sprague-Dawley rat at 10 mg/kg, po by LC-MS/MS analysis; assay type: ADME, organism-based; conditions: in vivo
# [14] = Oral bioavailability in male Sprague-Dawley rat at 10 mg/kg by LC-MS/MS analysis; assay type: ADME, organism-based; conditions: in vivo
# Rattus norvegicus [15] = test: Reversal of urinary incontinence in male spontaneous hypertensive rat model assessed as decrease in urine frequency at 0.1 mg/kg, ip measured after 3 hrs relative to control; assay type: functional; parameters: scale not given: the % may be the effect or the level left
# Rattus norvegicus [16] = test: Reversal of urinary incontinence in male spontaneous hypertensive rat model assessed as decrease in urine frequency at 0.3 mg/kg, ip measured after 3 hrs relative to control; assay type: functional; parameters: scale not given: the % may be the effect or the level left
# Rattus norvegicus [17] = test: Reversal of urinary incontinence in male spontaneous hypertensive rat model assessed as decrease in total urine volume at 1 mg/kg, ip measured after 3 hrs relative to control; assay type: functional; parameters: scale not given: the % may be the effect or the level left
# [18] = Aqueous solubility of compound in pure distilled water at >50 mg/ml; assay type: physicochemical; conditions: buffer
# [19] = Aqueous solubility of compound in PBS at >50 mg/ml; assay type: physicochemical; conditions: buffer
# [20] = Toxicity in male spontaneous hypertensive rat model at 100 mg/kg, po; assay type: organism-based; conditions: in vivo
# Rattus norvegicus [21] = test: Reversal of urinary incontinence in male spontaneous hypertensive rat model assessed as decrease in urine frequency at 100 mg/kg, po measured after 3 hrs relative to control; assay type: functional; parameters: scale not given: the % may be the effect or the level left
# Rattus norvegicus [22] = test: Reversal of urinary incontinence in male spontaneous hypertensive rat model assessed as decrease in urine volume at 100 mg/kg, po measured after 3 hrs relative to control; assay type: functional; parameters: scale not given: the % may be the effect or the level left
# [23] = Half-life in male Dunkin Hartley guinea pig at 10 mg/kg, iv by LC-MS/MS analysis; assay type: ADME, organism-based, Cavia porcellus; conditions: in vivo
# [24] = AUClast in male Dunkin Hartley guinea pig at 10 mg/kg, iv by LC-MS/MS analysis; assay type: ADME, organism-based, Cavia porcellus; conditions: in vivo
# [25] = Clearance in male Dunkin Hartley guinea pig at 10 mg/kg, iv by LC-MS/MS analysis; assay type: ADME, organism-based, Cavia porcellus; conditions: in vivo
# [26] = Volume of distribution at steady state in male Dunkin Hartley guinea pig at 10 mg/kg, iv by LC-MS/MS analysis; assay type: ADME, organism-based, Cavia porcellus; conditions: in vivo, read-out: Vdss
# [27] = Cmax in male Dunkin Hartley guinea pig at 10 mg/kg, po by LC-MS/MS analysis; assay type: ADME, organism-based, Cavia porcellus; conditions: in vivo
# [28] = Tmax in male Dunkin Hartley guinea pig at 10 mg/kg, po by LC-MS/MS analysis; assay type: ADME, organism-based, Cavia porcellus; conditions: in vivo
# [29] = Half-life in male Dunkin Hartley guinea pig at 10 mg/kg, po by LC-MS/MS analysis; assay type: ADME, organism-based, Cavia porcellus; conditions: in vivo
# [30] = AUClast in male Dunkin Hartley guinea pig at 10 mg/kg, po by LC-MS/MS analysis; assay type: ADME, organism-based, Cavia porcellus; conditions: in vivo
# [31] = Oral bioavailability in male Dunkin Hartley guinea pig at 10 mg/kg by LC-MS/MS analysis; assay type: ADME, organism-based, Cavia porcellus; conditions: in vivo
# [32] = Drug concentration in male Dunkin Hartley guinea pig lung at 10 mg/kg, po measured after 1 hrs by LC-MS/MS analysis; assay type: ADME, organism-based, Cavia porcellus; conditions: read-out: Ct
# [33] = Drug concentration in male Dunkin Hartley guinea pig lung at 10 mg/kg, po measured after 4 hrs by LC-MS/MS analysis; assay type: ADME, organism-based, Cavia porcellus; conditions: read-out: Ct
# [34] = Drug concentration in male Dunkin Hartley guinea pig brain at 10 mg/kg, po measured after 1 hrs by LC-MS/MS analysis; assay type: ADME, organism-based, Cavia porcellus; conditions: read-out: Ct
# [35] = Drug concentration in male Dunkin Hartley guinea pig brain at 10 mg/kg, po measured after 4 hrs by LC-MS/MS analysis; assay type: ADME, organism-based, Cavia porcellus; conditions: read-out: Ct
# [36] = Drug concentration in male Dunkin Hartley guinea pig blood at 10 mg/kg, po measured after 1 hrs by LC-MS/MS analysis; assay type: ADME, organism-based, Cavia porcellus; conditions: read-out: Ct
# [37] = Drug concentration in male Dunkin Hartley guinea pig blood at 10 mg/kg, po measured after 4 hrs by LC-MS/MS analysis; assay type: ADME, organism-based, Cavia porcellus; conditions: read-out: Ct
# [38] = Ratio of drug concentration in male Dunkin Hartley guinea pig lung to plasma at 10 mg/kg, po measured after 1 hrs by LC-MS/MS analysis; assay type: ADME, organism-based, Cavia porcellus
# [39] = Ratio of drug concentration in male Dunkin Hartley guinea pig lung to plasma at 10 mg/kg, po measured after 4 hrs by LC-MS/MS analysis; assay type: ADME, organism-based, Cavia porcellus
# [40] = Ratio of drug concentration in male Dunkin Hartley guinea pig brain to plasma at 10 mg/kg, po measured after 1 hrs by LC-MS/MS analysis; assay type: ADME, organism-based, Cavia porcellus; conditions: read-out: BPR
# [41] = Ratio of drug concentration in male Dunkin Hartley guinea pig brain to plasma at 10 mg/kg, po measured after 4 hrs by LC-MS/MS analysis; assay type: ADME, organism-based, Cavia porcellus; conditions: read-out: BPR
# Cavia porcellus [42] = test: Antitussive activity in citric acid-induced male Dunkin Hartley guinea pig cough model assessed as reduction in cough number at 8 mg/kg, po pretreated with compound for 4 hrs followed by citric acid administration and measured after 10 mins relative to control; assay type: functional; parameters: scale not given: the % may be the effect or the level left; conditions: time 250 min, 4.167 h
# Cavia porcellus [43] = test: Antitussive activity in citric acid-induced male Dunkin Hartley guinea pig cough model assessed as reduction in cough number at 20 mg/kg, po pretreated with compound for 4 hrs followed by citric acid administration and measured after 10 mins relative to control; assay type: functional; parameters: scale not given: the % may be the effect or the level left; conditions: time 250 min, 4.167 h
# Cavia porcellus [44] = test: Antitussive activity in citric acid-induced male Dunkin Hartley guinea pig cough model assessed as reduction in cough number at 50 mg/kg, po pretreated with compound for 4 hrs followed by citric acid administration and measured after 10 mins relative to control; assay type: functional; parameters: scale not given: the % may be the effect or the level left; conditions: time 250 min, 4.167 h
# Cavia porcellus [45] = test: Antitussive activity in citric acid-induced male Dunkin Hartley guinea pig cough model assessed as reduction in cough number pretreated orally with compound for 4 hrs followed by citric acid administration and measured after 10 mins; assay type: functional; conditions: 4.167 h, route po, time 250 min
# [46] = target: Calcium-activated potassium channel subunit alpha-1 (Homo sapiens, UniProt Q12791, G803D/N806K); test: Activation of hyperactive human BKca channel G803D/N806K mutant transfected in human AD-293 cells incubated for 15 mins by Flexstation3 multimode microplate reader analysis; assay type: cell-based
# [47] = Activation of rat BKca channel extracted from Xenopus laevis Oocytes by patch-clamp electrophysiology recordings; assay type: cell-based; conditions: Oocyte
# [48] = Metabolic stability in rat liver microsomes assessed as parent compound remaining at 1 uM preincubated for 5 mins followed by NADPH addition and measured after 30 mins by LC-MS/MS analysis; assay type: ADME, Microsome; conditions: read-out: Stability
# [49] = Metabolic stability in human liver microsomes assessed as parent compound remaining at 1 uM preincubated for 5 mins followed by NADPH addition and measured after 30 mins by LC-MS/MS analysis; assay type: ADME, Microsome; conditions: read-out: Stability
# [50] = Metabolic stability in rat liver microsomes assessed as parent compound remaining at 1 uM preincubated for 15 mins followed by UDPGA addition and measured after 60 mins by LC-MS/MS analysis; assay type: ADME, Microsome; conditions: time 75 min, read-out: Stability
# [51] = Metabolic stability in human liver microsomes assessed as parent compound remaining at 1 uM preincubated for 15 mins followed by UDPGA addition and measured after 60 mins by LC-MS/MS analysis; assay type: ADME, Microsome; conditions: time 75 min, read-out: Stability
# [52] = Permeability of compound at pH 7.4 measured after 4 hrs by GIT-PAMPA assay; assay type: ADME; conditions: read-out: permeability
# [53] = Drug metabolism in male Sprague-Dawley rat assessed as glucuronide conjugated metabolite formation at 10 mg/kg, po measured after approximately 4.2 hrs by LC-MS/MS analysis; assay type: ADME, organism-based; conditions: in vivo
# T1 sequence (Q12791 whole entry): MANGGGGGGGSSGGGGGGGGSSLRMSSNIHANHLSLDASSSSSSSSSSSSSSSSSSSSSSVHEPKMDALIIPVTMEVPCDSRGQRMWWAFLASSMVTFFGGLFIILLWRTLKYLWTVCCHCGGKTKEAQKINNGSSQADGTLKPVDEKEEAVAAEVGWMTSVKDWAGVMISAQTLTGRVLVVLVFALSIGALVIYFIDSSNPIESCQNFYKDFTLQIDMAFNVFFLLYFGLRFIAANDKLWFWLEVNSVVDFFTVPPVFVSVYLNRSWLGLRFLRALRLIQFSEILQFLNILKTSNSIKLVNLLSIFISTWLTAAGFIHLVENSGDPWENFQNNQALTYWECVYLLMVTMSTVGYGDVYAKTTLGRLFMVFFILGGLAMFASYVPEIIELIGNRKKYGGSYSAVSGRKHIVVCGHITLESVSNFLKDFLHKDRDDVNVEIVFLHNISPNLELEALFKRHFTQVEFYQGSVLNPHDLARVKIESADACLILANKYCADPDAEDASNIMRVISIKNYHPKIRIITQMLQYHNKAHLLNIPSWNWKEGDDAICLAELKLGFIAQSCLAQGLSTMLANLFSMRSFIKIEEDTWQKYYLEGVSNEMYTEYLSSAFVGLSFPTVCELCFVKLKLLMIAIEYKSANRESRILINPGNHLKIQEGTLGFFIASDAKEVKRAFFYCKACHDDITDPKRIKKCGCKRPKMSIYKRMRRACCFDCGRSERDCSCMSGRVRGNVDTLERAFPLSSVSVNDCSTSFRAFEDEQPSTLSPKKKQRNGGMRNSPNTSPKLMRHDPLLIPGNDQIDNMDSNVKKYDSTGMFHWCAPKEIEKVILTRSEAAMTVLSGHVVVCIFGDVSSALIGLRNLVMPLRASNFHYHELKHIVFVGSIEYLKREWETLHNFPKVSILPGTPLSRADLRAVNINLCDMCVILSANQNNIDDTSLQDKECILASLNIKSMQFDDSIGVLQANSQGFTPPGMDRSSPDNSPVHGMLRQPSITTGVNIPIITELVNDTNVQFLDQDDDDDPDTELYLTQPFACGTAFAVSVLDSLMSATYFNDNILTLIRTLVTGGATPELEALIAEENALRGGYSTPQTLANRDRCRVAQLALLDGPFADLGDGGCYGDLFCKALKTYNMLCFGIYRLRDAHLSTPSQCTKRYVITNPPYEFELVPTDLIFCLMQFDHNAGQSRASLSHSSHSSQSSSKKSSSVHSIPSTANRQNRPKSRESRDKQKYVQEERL
# Chain of Calcium-activated potassium channel subunit alpha-1 (Homo sapiens), Q12791 [UNDEFINED MUTATION] (Q12791 whole entry, looked up, stated change not applied): as the sequence (Q12791 whole entry) above
# Chain of Calcium-activated potassium channel subunit alpha-1 (Homo sapiens, UniProt Q12791, G803D/N806K) (Q12791 whole entry, looked up, stated change not applied): as the sequence (Q12791 whole entry) above
smiles,measurement,setting,value
FC(F)(F)c1cc(NC(=S)Nc2ccc(Br)cc2-c2nnn[nH]2)cc(C(F)(F)F)c1,Activity,[1],14.4%
same,EC50,[2],7 µM
same,fold change (FC),[3],2.3
same,EC50,[4],7 µM
same,EC50,[5],400 nM
Cl.Nc1ccc(Oc2c(F)c(F)c(C(F)(F)F)c(F)c2F)c(O)c1,half-life,[6],270 min
same,AUC(0-t),[7],1450 ng·h/mL
same,clearance,[8],115 mL/min/kg
same,Vd,[9],13.2 L/kg
same,Cmax,[10],61.5 ng/mL
same,Tmax,[11],4.2 h
same,half-life,[12],234 min
same,AUC(0-t),[13],344 ng·h/mL
same,bioavailability,[14],23.5%
same,Activity,Rattus norvegicus [15],43%
same,Activity,Rattus norvegicus [16],65%
same,Activity,Rattus norvegicus [17],48.5%
Cl.Cl.Oc1cc(NCCCCCN2CCOCC2)ccc1Oc1c(F)c(F)c(C(F)(F)F)c(F)c1F,Cmax,[10],283 ng/mL
same,Tmax,[11],0.4 h
same,half-life,[12],426 min
same,AUC(0-t),[13],844 ng·h/mL
same,solubility,[18],soluble
same,solubility,[19],soluble
same,Activity,[20],Non-toxic
same,Activity,Rattus norvegicus [21],61.4%
same,Activity,Rattus norvegicus [22],62.6%
same,half-life,[23],240 min
same,AUC(0-t),[24],1800 ng·h/mL
same,clearance,[25],93.3 mL/min/kg
same,Vd,[26],18.1 L/kg
same,Cmax,[27],31.8 ng/mL
same,Tmax,[28],1.8 h
same,half-life,[29],282 min
same,AUC(0-t),[30],188 ng·h/mL
same,bioavailability,[31],10.5%
same,concentration at 1 h,[32],8160 ng/g
same,concentration at 4 h,[33],13500 ng/g
same,concentration at 1 h,[34],424 ng/g
same,concentration at 4 h,[35],414 ng/g
same,concentration at 1 h,[36],28 ng/mL
same,concentration at 4 h,[37],23 ng/mL
same,Kp at 1 h,[38],291
same,Kp at 4 h,[39],587
same,Kp at 1 h,[40],15
same,Kp at 4 h,[41],18
same,Activity,Cavia porcellus [42],25.4%
same,Activity,Cavia porcellus [43],54.4%
same,Activity,Cavia porcellus [44],69.3%
same,ED50,Cavia porcellus [45],11.8 mg/kg
Nc1ccc(Oc2c(F)c(F)c(C(F)(F)F)c(F)c2F)c(O)c1,EC50,[46],120 nM
same,EC50,[47],280 nM
same,"remaining at 0.5 h, 1 µM",[48],34.6%
same,"remaining at 0.5 h, 1 µM",[49],97%
same,"remaining at 1 h, 1 µM",[50],5.8%
same,"remaining at 1 h, 1 µM",[51],4.8%
same,Papp at 4 h,[52],41.1 ×10⁻⁶ cm/s
same,Drug metabolism,[53],metabolite_detected

# Source: ChEMBL document CHEMBL6153133, “Discovery of Diphenyl Ether Derivatives as Novel BKCa Channel Activators: Structure-Activity Relationship, Cryo-EM Complex Structures, and In Vivo Animal Studies” (J Med Chem, 2025)
